The values below come from article PMC10253401, “BS148 Reduces the Aggressiveness of Metastatic Melanoma via Sigma-2 Receptor Targeting” (International Journal of Molecular Sciences, 2023).

The target of the assay is T1, sigma-2 receptor (S2R) (Homo sapiens, UniProt Q5BJF2).
T1 construct: gene TMEM97
Kind of assay: radioligand displacement ([3H]-ditolylguanidine, […], with […] (+)pentazocine to mask S1R). The assay is classed as binding. (In general: Loss of bound radioactivity is the signal in a displacement assay; it reports binding, not function.)

T1 sequence (Q5BJF2 whole entry): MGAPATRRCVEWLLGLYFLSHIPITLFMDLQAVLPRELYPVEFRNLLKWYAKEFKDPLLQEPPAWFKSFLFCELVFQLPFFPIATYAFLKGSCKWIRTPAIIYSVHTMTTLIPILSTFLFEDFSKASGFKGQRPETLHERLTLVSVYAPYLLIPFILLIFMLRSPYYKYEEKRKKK

With `O=C(CCCCCNc1ccc([N+](=O)[O-])c2nonc12)Oc1ccc(CC2CCN(CC3CSC4(CCCCC4)S3)CC2)cc1` (stereo not shown) [BS148-fluo, 4-((1-((1,4-dithiaspiro[4.5]decane-2-yl)methyl)piperidin-4-yl)methyl)phenyl-6-((7-nitrobenzo[c][1,2,5]oxadiazol-4-yl)amino)hexanoate], the “pKi S2R ^a ± SD” value is listed as 7.00 ± 0.11 pKi.
